Measurements as given in patent US20030176456A1, “Methods for reducing alcohol cravings in chronic alcoholics” (priority 2001, published 2003).
Read-outs that look alike come from different tables or passages of the source.

Assays:
[1] = target: T1, α1β3γ2 GABAA receptor (Homo sapiens, UniProt P14867+P18507); assay: Binding affinity at recombinant GABAA receptors (Ltk cells stably transfected)
T1 construct: expressed in transfected cells

[2] = target: T2, α2β3γ2 GABAA receptor (Homo sapiens, UniProt P18507+P47869); assay: as above
T2 construct: expressed in transfected cells

[3] = target: T3, α3β3γ2 GABAA receptor (Homo sapiens, UniProt P18507+P34903); assay: as above
T3 construct: expressed in transfected cells

[4] = target: T4, α5β3γ2 GABAA receptor (Homo sapiens, UniProt P18507+P31644); assay: as above
T4 construct: expressed in transfected cells

[5] = target: T5, α6β3γ2 GABAA receptor (Homo sapiens, UniProt P18507+Q16445); assay: as above; details: recombinant αxβ3γ2; read-out: Ki α6
T5 construct: expressed in transfected cells

[6] = system: GABAA α3β3γ2 receptors; assay: Xenopus oocyte expression assay, modulation of GABA current; format: cell-based, rat; details: saturating 1-10 μM modulator with EC50 GABA (30 μM); mean±S.D.
[7] = target: T6, GABAA α5β3γ2 receptors (Rattus norvegicus, UniProt P18508+P19969); assay: as above; format: cell-based; details: saturating 1-10 μM modulator with EC50 GABA (30 μM); mean±S.D.
T6 construct: expressed in transfected cells; host or cells: Xenopus laevis oocytes injected with cRNA

[8] = system: alcohol-preferring (P) rats; assay: Operant self-administration, concurrent FR4 schedule for EtOH and saccharin; format: in vivo, rat; details: for EtOH-maintained responding / saccharin-maintained responding: bilateral infusion 5-40 μg in NACC/caudate putamen (neuroanatomical control)
Description: Behavioral testing was conducted in 15 standard operant chambers (Coulbourn Instruments) equipped with two removable levers and two dipper fluid delivery systems enclosed in sound-attenuated cubicles as previously described (June et al., 1998a,b). A concurrent fixed-ratio schedule was employed to investigate the capacity of systemic and direct microinjections of 3-PBC in the CNS to modify EtOH and saccharin-maintained responding. The specific details of these procedures have recently been described (June et al., 1998; 1999; 2001). In brief, rats were initially trained to orally self-administer EtOH and water in daily 60 min sessions on a concurrent FRI schedule in a two-lever choice situation. After a period of stabilization on the FRI schedule, the response requirement was increased to a concurrent FR4 schedule and the water reinforcer was replaced with saccharin (0.025-0.05% w/v). The importance of alternative and concurrently presented reinforcers in examining the positive reinforcing properties of drugs of abuse has been discussed previously (Meisch and Lemaire, 1993; June et al., 2001; June in press).
3-PBC was administered 15 min before the operant session to allow for optimal absorption and CNS distribution. […] The duration of the operant sessions was 60 min, however, subjects were tested at 24 and 48 hour post drug administration to determine any residual drug effects. A minimum of 72-96 hours were allocated between drug treatments to permit animals to return to baseline levels. This period prevented confounding of drug treatments due to residual effects (for details see June et al., 1998b).
Guide cannulas were stereotaxically implanted bilaterally in the anterior (AP +0.48; ML ±1.6; DV −7.2, with 6° lateral angle) (n=8) and medial (AP −0.26; ML ±2.5; DV −7.0) (n=6) VP. The neuroanatomical control rats were bilaterally implanted in either the caudate putamen or NACC. The coordinates for the caudate putamen were AP +1.5; ML ±2.5; DV 4.2 (n=3). In the NACC group some rats were implanted in the shell [AP +1.4; ML +0.8; DV −6.0] (n=3) while others were implanted in the core [AP +1.4; ML ±1.7; DV −5.71] (n=3). All coordinates are given in millimeters relative to Bregma based on the Paxinos and Watson (1998) atlas. Subjects were given 7 days to recover from surgery before returning to training in the operant chamber. The 3-PBC infusions were delivered immediately before the operant session with a Harvard infusion pump in aCSF (composition in mM: NaCl, 120; KCl, 4.8; KH2PO4, 1.2; MgSO4, 1.2; NaHCO3, 25; CaCl2, 2.5; d-glucose, 10) as previously described (for details see June et al., 2001).
Statistical Analysis The operant maintained responding data were analyzed by a single factor repeated measures ANOVA with drug treatment (i.e., dose) as the independent factor. The dependent variables were EtOH and saccharin-maintained responding. Each dependent variable was analyzed separately. Post-hoc comparisons between individual drug treatments were made using the Newman Keuls Test in all experiments. In systemic studies, drug treatment comparisons were made against the no injection (e.g., baseline=BL) and Tween-20 vehicle control conditions. In the microinjection studies, drug treatment comparisons were made against the no injection control condition (e.g., baseline=BL) and aCSF control condition. All microinjection data were obtained and analyzed following correct histological verification under a light microscope. To determine the time course of antagonism across the 60 min session, a single factor ANOVA was conducted at each of the six-10 min intervals on the cumulative response data for the respective drug treatment conditions relative to the pooled controlled conditions. EtOH and saccharin maintained responding data were analyzed separately. Post-hoc analyses were performed on the cumulative interval data using the least significant difference (LSD) test. […]

[9] = system: P rats; assay: EtOH and sucrose responding after oral (gavage) administration; format: in vivo, rat; details: for responding for sucrose: oral (gavage) 75 mg/kg; for EtOH responding / EtOH responding 24 hours after administration: oral (gavage); for EtOH responding: βCCt 15 & 30 mg/kg, 3-PBC 30-75 mg/kg, naltrexone 30-75 mg/kg; for EtOH responding 24 hours after administration: βCCt 15 & 75 mg/kg
Text: In this study we compared the suppressant effect of βCCt and 3-PBC with naltrexone, a currently used alcohol antagonist on the market. As it is shown in FIG. 29A-B, orally administered βCCt can reduce alcohol responding, however, the effects are not dose related. In addition, 24 hr after administration of βCCt, it continues to reduce alcohol responding with selected doses. […] The suppressant effects of naltrexone in reducing alcohol responding are also dissipated 24 hr after the administration. […] Unlike naltrexone, the suppressant effects observed by βCCt and 3-PBC are selective for alcohol, and not reinforcers in general.

[10] = system: selected rodent lines; assay: Plus-maze test in selected rodent lines; format: in vivo; details: particularly at moderate to high doses (>7.5 mg/kg)
[11] = system: mice; details: doses as high as 60 mg/kg (Griebel et al., 1999); cited from earlier work
[12] = system: rats; assay: Reversal of suppression produced by chlordiazepoxide; format: in vivo, rat; details: 7.5 & 15 mg/kg; preliminary studies
[13] = bilateral infusion in ventral pallidum (VP), 3-PBC 0.5-40 μg, βCCt 5-40 μg
[14] = i.p. 15 min before 60 min session, 3-PBC 1-20 mg/kg, βCCt 5-40 mg/kg
[15] = i.p., 3-PBC 1-10 mg/kg, βCCt 5-40 mg/kg

T1 sequence (P14867 28-456): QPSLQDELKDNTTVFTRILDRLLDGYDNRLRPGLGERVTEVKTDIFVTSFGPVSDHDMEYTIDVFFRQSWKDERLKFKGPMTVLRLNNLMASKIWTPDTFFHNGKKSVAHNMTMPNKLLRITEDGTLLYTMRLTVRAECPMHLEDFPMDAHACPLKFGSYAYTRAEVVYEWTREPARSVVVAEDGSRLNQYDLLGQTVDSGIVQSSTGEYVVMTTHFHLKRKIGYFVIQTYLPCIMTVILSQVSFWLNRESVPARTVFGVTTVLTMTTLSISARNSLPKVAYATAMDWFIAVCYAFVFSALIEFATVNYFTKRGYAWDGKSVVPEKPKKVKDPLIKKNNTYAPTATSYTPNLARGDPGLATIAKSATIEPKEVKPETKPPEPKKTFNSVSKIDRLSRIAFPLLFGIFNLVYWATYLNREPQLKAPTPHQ
T1 sequence (P28472 26-473 partner): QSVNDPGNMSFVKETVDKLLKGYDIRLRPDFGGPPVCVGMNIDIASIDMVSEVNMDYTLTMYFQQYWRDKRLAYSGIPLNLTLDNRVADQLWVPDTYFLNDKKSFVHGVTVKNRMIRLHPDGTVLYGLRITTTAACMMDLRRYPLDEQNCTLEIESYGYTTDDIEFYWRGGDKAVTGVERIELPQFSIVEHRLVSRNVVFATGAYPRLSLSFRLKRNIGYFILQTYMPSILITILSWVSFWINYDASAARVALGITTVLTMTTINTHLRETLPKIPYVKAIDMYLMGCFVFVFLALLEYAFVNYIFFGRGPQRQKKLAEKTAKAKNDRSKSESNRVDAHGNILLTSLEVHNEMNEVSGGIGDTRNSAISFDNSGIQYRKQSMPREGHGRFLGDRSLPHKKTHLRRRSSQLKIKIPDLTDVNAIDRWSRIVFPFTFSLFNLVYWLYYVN
T1 sequence (P18507 40-475): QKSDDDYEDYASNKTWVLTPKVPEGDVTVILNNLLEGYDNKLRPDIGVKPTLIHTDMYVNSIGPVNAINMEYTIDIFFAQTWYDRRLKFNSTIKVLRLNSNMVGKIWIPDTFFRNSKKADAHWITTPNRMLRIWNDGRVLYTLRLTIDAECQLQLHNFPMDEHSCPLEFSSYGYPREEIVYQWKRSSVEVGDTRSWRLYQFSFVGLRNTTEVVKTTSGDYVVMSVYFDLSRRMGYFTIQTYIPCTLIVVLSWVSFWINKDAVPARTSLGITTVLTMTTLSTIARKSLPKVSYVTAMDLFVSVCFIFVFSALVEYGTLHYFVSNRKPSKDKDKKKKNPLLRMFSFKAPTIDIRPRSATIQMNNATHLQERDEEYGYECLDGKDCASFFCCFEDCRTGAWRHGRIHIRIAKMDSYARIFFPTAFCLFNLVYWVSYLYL
T4 sequence (P31644 32-462): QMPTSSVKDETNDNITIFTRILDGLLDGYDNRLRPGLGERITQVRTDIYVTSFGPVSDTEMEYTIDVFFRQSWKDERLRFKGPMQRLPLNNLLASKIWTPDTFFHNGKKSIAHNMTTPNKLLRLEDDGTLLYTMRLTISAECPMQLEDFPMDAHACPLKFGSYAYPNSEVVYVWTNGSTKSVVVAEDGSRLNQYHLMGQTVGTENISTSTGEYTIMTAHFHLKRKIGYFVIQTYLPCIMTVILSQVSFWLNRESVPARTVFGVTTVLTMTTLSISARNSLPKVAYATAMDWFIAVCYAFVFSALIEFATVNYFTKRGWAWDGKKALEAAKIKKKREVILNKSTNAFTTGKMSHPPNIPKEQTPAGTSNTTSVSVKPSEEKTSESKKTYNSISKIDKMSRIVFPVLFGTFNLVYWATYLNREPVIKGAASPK
T4 sequence (P28472 26-473 partner): as the sequence (P28472 26-473 partner) above
T4 sequence (P18507 40-475): as the sequence (P18507 40-475) above
T5 sequence (Q16445 20-453): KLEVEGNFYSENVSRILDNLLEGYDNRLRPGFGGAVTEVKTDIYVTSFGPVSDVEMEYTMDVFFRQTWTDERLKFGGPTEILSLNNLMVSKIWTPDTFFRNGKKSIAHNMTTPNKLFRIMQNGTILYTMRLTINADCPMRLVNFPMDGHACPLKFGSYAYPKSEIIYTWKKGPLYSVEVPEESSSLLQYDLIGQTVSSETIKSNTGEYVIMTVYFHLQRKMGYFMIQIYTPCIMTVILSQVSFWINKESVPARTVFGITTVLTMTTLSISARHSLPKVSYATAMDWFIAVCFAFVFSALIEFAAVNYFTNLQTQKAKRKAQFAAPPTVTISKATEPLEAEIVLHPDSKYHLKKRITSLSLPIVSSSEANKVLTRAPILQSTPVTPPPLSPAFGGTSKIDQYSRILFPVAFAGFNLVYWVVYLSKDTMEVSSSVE
T5 sequence (P28472 26-473 partner): as the sequence (P28472 26-473 partner) above
T5 sequence (P18507 40-475): as the sequence (P18507 40-475) above
T2 sequence (P47869 29-451): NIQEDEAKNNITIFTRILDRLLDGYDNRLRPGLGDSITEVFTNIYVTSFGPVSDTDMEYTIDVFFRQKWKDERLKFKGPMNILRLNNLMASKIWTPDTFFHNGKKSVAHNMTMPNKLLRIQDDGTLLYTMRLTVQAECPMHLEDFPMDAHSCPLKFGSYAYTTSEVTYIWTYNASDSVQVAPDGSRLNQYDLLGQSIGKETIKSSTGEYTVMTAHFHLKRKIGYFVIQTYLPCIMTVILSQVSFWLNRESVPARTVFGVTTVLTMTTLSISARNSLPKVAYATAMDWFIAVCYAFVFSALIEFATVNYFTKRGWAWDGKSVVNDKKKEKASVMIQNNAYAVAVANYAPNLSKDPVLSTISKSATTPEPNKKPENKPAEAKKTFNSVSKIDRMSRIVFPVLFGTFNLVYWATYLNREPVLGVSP
T2 sequence (P28472 26-473 partner): as the sequence (P28472 26-473 partner) above
T2 sequence (P18507 40-475): as the sequence (P18507 40-475) above
T3 sequence (P34903 29-492): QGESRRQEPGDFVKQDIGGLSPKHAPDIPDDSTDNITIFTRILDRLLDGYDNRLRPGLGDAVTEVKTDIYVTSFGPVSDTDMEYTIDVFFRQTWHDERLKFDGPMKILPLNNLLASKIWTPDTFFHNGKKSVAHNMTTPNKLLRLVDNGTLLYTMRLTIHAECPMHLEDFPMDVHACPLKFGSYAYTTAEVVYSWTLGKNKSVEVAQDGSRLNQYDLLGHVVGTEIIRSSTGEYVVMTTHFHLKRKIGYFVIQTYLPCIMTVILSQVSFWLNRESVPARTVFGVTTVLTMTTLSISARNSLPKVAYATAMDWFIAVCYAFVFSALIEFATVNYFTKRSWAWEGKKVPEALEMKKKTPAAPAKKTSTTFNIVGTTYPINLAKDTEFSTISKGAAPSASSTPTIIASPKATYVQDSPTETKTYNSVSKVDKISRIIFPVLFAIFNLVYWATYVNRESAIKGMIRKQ
T3 sequence (P28472 26-473 partner): as the sequence (P28472 26-473 partner) above
T3 sequence (P18507 40-475): as the sequence (P18507 40-475) above
T6 sequence (P19969 32-464 limits assumed): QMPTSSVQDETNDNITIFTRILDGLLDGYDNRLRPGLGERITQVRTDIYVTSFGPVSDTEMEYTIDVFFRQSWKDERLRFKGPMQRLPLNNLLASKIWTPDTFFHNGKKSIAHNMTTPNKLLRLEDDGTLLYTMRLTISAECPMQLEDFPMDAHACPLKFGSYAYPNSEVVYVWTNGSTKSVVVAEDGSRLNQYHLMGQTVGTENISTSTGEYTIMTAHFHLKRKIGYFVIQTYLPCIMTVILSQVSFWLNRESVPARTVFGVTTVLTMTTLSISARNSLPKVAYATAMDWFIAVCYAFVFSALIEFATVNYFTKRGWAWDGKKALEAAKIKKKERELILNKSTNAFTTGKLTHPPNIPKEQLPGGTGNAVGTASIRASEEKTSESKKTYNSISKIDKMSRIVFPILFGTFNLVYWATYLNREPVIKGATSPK
T6 sequence (P63079 26-473 partner): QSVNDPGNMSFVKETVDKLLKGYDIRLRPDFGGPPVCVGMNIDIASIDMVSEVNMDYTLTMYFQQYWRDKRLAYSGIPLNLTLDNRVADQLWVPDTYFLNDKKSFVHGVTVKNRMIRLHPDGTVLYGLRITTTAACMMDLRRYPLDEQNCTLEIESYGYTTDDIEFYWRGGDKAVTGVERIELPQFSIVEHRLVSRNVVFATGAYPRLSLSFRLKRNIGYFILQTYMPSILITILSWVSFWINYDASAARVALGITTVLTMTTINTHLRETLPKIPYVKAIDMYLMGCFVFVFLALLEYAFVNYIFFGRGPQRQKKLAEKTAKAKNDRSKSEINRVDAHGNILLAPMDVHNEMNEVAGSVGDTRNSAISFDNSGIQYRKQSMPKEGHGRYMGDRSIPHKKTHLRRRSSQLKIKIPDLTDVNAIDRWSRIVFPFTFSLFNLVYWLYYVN
T6 sequence (P18508 39-466): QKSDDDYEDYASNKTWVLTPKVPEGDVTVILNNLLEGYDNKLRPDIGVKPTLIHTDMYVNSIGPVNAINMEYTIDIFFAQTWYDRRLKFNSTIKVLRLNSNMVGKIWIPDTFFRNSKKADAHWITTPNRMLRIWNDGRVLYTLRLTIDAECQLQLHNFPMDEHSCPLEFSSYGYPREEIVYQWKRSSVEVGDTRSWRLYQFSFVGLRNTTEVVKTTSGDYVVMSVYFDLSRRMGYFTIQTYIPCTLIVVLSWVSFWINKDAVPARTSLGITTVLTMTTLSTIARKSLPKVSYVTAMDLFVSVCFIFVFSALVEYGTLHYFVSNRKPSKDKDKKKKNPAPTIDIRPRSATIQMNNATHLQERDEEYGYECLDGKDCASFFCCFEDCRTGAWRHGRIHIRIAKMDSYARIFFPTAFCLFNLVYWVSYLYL

Structure (SMILES) | Ki [5] | % of GABA response, α3 [6] | EtOH-maintained responding [8] | saccharin-maintained responding [8] | saccharin-maintained responding, total session ([8]; bilateral infusion in VP) | EtOH-maintained responding, total session [8, 13] | EtOH-maintained responding, total session [8, 14] | saccharin-maintained responding, total session [8, 15] | responding for sucrose [9] | EtOH responding [9] | EtOH responding 24 hours after administration [9] | anxiolytic effects in the plus-maze test [10] | also measured
CC(C)(C)OC(=O)c1cc2c(cn1)[nH]c1ccccc12 [βCCt, β-carboline-3-carboxylate t-butyl ester] | > 1000 nM | 108±6% | none of the βCCt treatments altered | none of the βCCt treatments altered | did not alter | dose-dependently reduced | all doses significantly suppressed | without effect | fails to alter responding for sucrose | significantly reduces EtOH responding | significantly reduce EtOH responding | capable of producing anxiolytic effects | Ki [1]: 0.72 nM; fold more selective than flumazenil at α1 sites ([1]; binding selectivity): over 20 fold; fold more selective than zolpidem at α1 sites ([1]; binding selectivity): 3.5 fold; Ki [2]: 15 nM; Ki [3]: 18.9 nM; Ki [4]: 111 nM; % of GABA response, α5 [7]: 88±7%; suppression of EtOH responding 24 hr post-drug ([8]; i.p. 40 mg/kg, 24 hr post-drug administration): 76 % of control levels; intrinsic activity in the open field [11]: failed to produce intrinsic activity
CCCOc1cc2c(cn1)[nH]c1ccccc12.Cl [3-PBC, 3-Propoxy-β-carboline hydrochloride] | > 1000 nM | 119±6% | without effect | without effect | only the 40 μg dose significantly reduced saccharin responding | dose-dependently reduced | significant dose-related reduction | significant elevation | fails to alter responding for sucrose | dose-dependently reduces EtOH responding | dissipated | capable of producing anxiolytic effects | selectivity for α1 relative to α2 ([1]; binding selectivity): 9.8 fold; selectivity for α1 relative to α3 ([1]; binding selectivity): 13 fold; selectivity for α1 relative to α5 ([1]; binding selectivity): 111 fold; Ki ([1]; recombinant αxβ3γ2, read-out: Ki α1): 5.3 nM; Ki ([2]; recombinant αxβ3γ2, read-out: Ki α2): 52.3 nM; Ki ([3]; recombinant αxβ3γ2, read-out: Ki α3): 68.8 nM; Ki ([4]; recombinant αxβ3γ2, read-out: Ki α5): 591 nM; cumulative within session alcohol responding ([8]; VP infusion, initial 10 and 20 min intervals): significant reduction; saccharin-maintained responding, total session ([8]; i.p. 20 mg/kg): significantly suppressed; cumulative within session EtOH responding ([8]; i.p., first 10, 20 and 30 min intervals): suppressed the initiation of EtOH responding; reversal of suppression produced by chlordiazepoxide (2.5-10 mg/kg) [12]: reversed the suppression produced by chlordiazepoxide
